The results in this text go back to US20180064691A1, “Antibacterial compositions” (WOCKHARDT LIMITED, priority 2016, published 2018).

Common to all, as to test: quantitative drug diffusion assay (zone of inhibition, CLSI)
Common to all, as to assay type: cell-based

The subject of assay [1] is E. coli M50. Also on record: key: (R): Resistant; (I): Intermediate; (S): Sensitive (Interpretation as per CLSI recommendations, 2010). To be noted: CLSI recommendations, 2010. The text has this:
(§1) Antibacterial activity of cefepime combination with tazobactam against various bacterial strains, including those bacteria that are known to product one or more beta-lactamase, was investigated in quantitative drug diffusion assay performed as per CLSI recommendations (Clinical and Laboratory Standards Institute (CLSI), performance Standards for Antimicrobial Susceptibility Testing, 20th Informational Supplement, M 100-S20, Volume 30, No. 1, 2010).
(§2) In a typical study, overnight grown bacterial cultures after appropriate dilution were seed inoculated in the molten, cooled agar media and plates poured. Antibacterial agents containing 6 mm diameter discs were placed on the top of the agar surface. Zone of inhibition based observation was performed after 16 to 18 hours of incubation at 35±2° C. in ambient air. These assays are routinely used in determining possibility of treating a particular infection using given antibacterial agent or a composition. In general, zone inhibition values in the sensitive (S) range indicate that the strain is susceptible to that antibacterial agent or composition. It is generally assumed that the antibacterial agent or the combination under consideration would not be effective in treating the infection, if the zone inhibition values are in the resistant (R) range.

The subject of assay [2] is E. coli 7MP. Set-up: key: (R): Resistant; (I): Intermediate; (S): Sensitive (Interpretation as per CLSI recommendations, 2010). Particulars: CLSI recommendations, 2010.
From the text: as §1, §2

For assay [3], the system named is E. coli B-123. Set-up: key: (R): Resistant; (I): Intermediate; (S): Sensitive (Interpretation as per CLSI recommendations, 2010). Particulars: CLSI recommendations, 2010.
From the text: as §1, §2

The subject of assay [4] is E. coli S-112. Also on record: key: (R): Resistant; (I): Intermediate; (S): Sensitive (Interpretation as per CLSI recommendations, 2010). To be noted: CLSI recommendations, 2010.
From the text: as §1, §2

Assay [5] concerns E. coli B-89. Also on record: key: (R): Resistant; (I): Intermediate; (S): Sensitive (Interpretation as per CLSI recommendations, 2010). To be noted: CLSI recommendations, 2010.
From the text: as §1, §2

In assay [6] the test system is E. coli M-138. Also on record: key to CLSI susceptibility interpretation: (R): Resistant; (I): Intermediate; (S): Sensitive (Interpretation as per CLSI recommendations, 2010).
From the text: as §1, §2

Turning to `CO/N=C(\C(=O)N[C@@H]1C(=O)N2C(C(=O)[O-])=C(C[N+]3(C)CCCC3)CS[C@H]12)c1csc(N)n1` [Cefepime, cefepime], the CLSI susceptibility interpretation result in assay [1] is “(R)”; in assay [2], “(I)”; in assay [3] it was “(R)”; in assay [4] it was “(I)”; in assay [5], “(R)”; in assay [6] (CLSI recommendations, 2010), “(R)”. Further, the “Zone of Inhibition” value in assay [6] (6 mm discs, 16 to 18 hours at 35±2° C.) was “Nil”.
